In patent US12065466B2, “Methods and compositions for protein sequencing” (Quantum-Si Incorporated, priority 2020, dated 2024):
Entries after “also recorded” stand apart in the source; their conditions may differ. Square brackets hold non-standard residues; d marks the D form. Ends that are not written are not given here. Lys(N3) = [N-]=[N+]=NCCCC[C@H](N)C(=O)O

Target: T1, rat aminopeptidase N (Rat APN) (Rattus norvegicus, UniProt P15684)
T1 sequence (P15684 1-965): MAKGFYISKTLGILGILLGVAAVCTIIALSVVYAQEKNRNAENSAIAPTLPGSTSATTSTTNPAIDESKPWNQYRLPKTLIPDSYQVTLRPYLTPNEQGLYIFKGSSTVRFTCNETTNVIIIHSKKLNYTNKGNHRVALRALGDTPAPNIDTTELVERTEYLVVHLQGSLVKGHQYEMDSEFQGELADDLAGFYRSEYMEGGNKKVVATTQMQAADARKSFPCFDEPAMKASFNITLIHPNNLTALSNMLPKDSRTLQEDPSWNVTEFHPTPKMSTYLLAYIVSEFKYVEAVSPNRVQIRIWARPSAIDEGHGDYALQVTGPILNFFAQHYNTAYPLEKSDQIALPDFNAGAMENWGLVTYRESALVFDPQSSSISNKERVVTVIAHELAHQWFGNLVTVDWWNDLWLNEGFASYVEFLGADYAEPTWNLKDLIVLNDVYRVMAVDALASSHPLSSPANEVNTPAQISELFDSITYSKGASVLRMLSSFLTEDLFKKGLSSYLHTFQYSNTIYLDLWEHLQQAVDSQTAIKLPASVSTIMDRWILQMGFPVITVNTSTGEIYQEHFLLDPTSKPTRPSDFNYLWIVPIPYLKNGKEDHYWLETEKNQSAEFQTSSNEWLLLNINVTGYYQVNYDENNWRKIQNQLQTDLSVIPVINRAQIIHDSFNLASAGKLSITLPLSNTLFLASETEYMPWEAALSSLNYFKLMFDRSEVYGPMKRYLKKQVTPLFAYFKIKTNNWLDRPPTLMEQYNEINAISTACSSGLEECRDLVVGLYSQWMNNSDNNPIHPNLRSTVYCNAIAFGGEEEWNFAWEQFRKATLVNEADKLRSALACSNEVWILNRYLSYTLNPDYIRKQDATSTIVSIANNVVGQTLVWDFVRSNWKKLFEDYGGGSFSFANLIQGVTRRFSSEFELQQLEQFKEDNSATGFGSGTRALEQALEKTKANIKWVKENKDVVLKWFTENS
Assay: Terminal amino acid cleavage of peptide-linker conjugates by Rat APN (LCMS)
Type: biochemical
Conditions: monitored by LCMS
Method: (§1) The peptide-linker conjugates were evaluated for amino acid cleavage at peptide N-termini by N-terminal aminopeptidases (Table 6, below).
(§2) The peptide-linker conjugates shown in Table 6 were incubated with either proline iminopeptidase (“PIP”) or rat aminopeptidase N (“Rat APN”), and peptide cleavage was monitored by LCMS. All other cleavage reactions were measured in a similar manner.

| Substance | Cleaved by Rat APN |
| --- | --- |
| 4: peptide-linker conjugate: KKMKKM{LYS(N3)} (SEQ ID NO. 226), PEG4 linker (KKMKKM[Lys(N3)]; also: PEG4 linker, attachment not given here) [Entry 4] | Yes |
| 6: peptide-linker conjugate: FFMFFM{LYS(N3)} (SEQ ID NO. 228), oligo linker (FFMFFM[Lys(N3)]; also: oligo linker, attachment not given here) [Entry 6] | Yes |
| 3: peptide-linker conjugate: KKMKKM{LYS(N3)} (SEQ ID NO. 225), oligo-PEG linker (KKMKKM[Lys(N3)]; also: oligo-PEG linker, attachment not given here) [Entry 3] | No |
| 2: peptide-linker conjugate: KKMKKM{LYS(N3)} (SEQ ID NO. 224), oligo linker (KKMKKM[Lys(N3)]; also: oligo linker, attachment not given here) [Entry 2] | No |
| 7: peptide-linker conjugate: AAMAAM{LYS(N3)} (SEQ ID NO. 229), oligo linker (AAMAAM[Lys(N3)]; also: oligo linker, attachment not given here) [Entry 7] | Yes |
| Entry 5: peptide-linker conjugate: DDMDDM{LYS(N3)} (SEQ ID NO. 227), oligo linker (DDMDDM[Lys(N3)]; also: oligo linker, attachment not given here) | Yes |

System: amino acid at a terminal position of a polypeptide
Assay: not given
Conditions: Table 2; amino acid identity at a terminal position (phosphotyrosine also internal); inferred from literature and/or demonstrated by the inventors; cited from earlier work

| Substance | Binding Pref. |
| --- | --- |
| Rattus norvegicus p62 protein: SEQ ID NO: 124 | K, R, H,; also recorded: W, F, Y |
| H. sapiens Src tyrosine kinase SH2 domain: SEQ ID NO: 118 | phospho-Y |
| H. sapiens p62 fragment 1-180: SEQ ID NO: 121 | K, R, H,; also recorded: W, F, Y |
| H. sapiens p62 fragment 1-310: SEQ ID NO: 120 | K, R, H,; also recorded: W, F, Y |
| H. sapiens p62 fragment 126-180: SEQ ID NO: 122 | K, R, H,; also recorded: W, F, Y |

System: proline iminopeptidase (PIP)
Assay: Terminal amino acid cleavage of peptide-linker conjugates by PIP (LCMS)
Type: biochemical
Conditions: monitored by LCMS
Method: as §1, §2

| Substance | Cleaved by PIP |
| --- | --- |
| 8: peptide-linker conjugate: FPFPFP{LYS(N3)} (SEQ ID NO. 230), oligo linker (FPFPFP[Lys(N3)]; also: oligo linker, attachment not given here) [Entry 8] | Yes |
| 9: peptide-linker conjugate: DPDPDP{LYS(N3)} (SEQ ID NO. 231), oligo linker (DPDPDP[Lys(N3)]; also: oligo linker, attachment not given here) [Entry 9] | Yes |
| 11: peptide-linker conjugate: KPKPKP{LYS(N3)} (SEQ ID NO. 233), PEG4 linker (KPKPKP[Lys(N3)]; also: PEG4 linker, attachment not given here) [Entry 11] | Yes |
| 10: peptide-linker conjugate: KPKPKP{LYS(N3)} (SEQ ID NO. 232), oligo linker (KPKPKP[Lys(N3)]; also: oligo linker, attachment not given here) [Entry 10] | No |
